Data set [1] relates to human keratinocytes. Briefly: Anti-radical effect on UVA-irradiated human keratinocyte suspension, lipid peroxide chemiluminescence (Example 7). In kind it is cell-based. The following applies: UVA irradiated 30 minutes, 10^−6 M. An excerpt: The anti-radical effects of 3β,7α-dihydroxy-5-androstene-17-one (7α-hydroxy-DHEA) on a suspension of human keratinocytes.
Keratinocytes from a healthy donor were cultivated to the subconfluent stage in a specific medium (KGM) for the proliferation of keratinocytes. The suspensions obtained were split up, in triplicate, into four series, of which three were irradiated for thirty minutes with a lamp […] UVA so as to speed up the production of free radicals. Among the three irradiated series, one contained Vitamins C and E (0.7%) and was used as a protection reference, one contained 7α-hydroxy-DHEA at 10^−6 M and the last served as a control. Table D below reports on the measurement of the anti-radical effects.
The free radicals produced generate lipoid peroxides which are measured by chemiluminescence (Belghmi et al. J Biolum. Chemilum. 2: 113-119, 1982). The effectiveness of the 7α-hydroxy-DHEA was calculated on the basis of non-irradiated controls and the protection reference.

Data set [2] is described as follows: In-vitro oxygen radical assay with luminol and hydrogen peroxide (Example 2). The data set is classed as biochemical. The following applies: luminol pre-incubated with compound at 100 μg/ml. Here is the method: The ability of a compound to scavenge free radicals implicates it as an antioxidizing agent that could help to reduce the natural oxidizing effects of aging. In a first test of whether DHEA or it derivatives have the ability to capture free radicals, an in-vitro oxygen radical assay was devised, The assay was run in quadruplicate to perfect the concentrations of controls as well as test the diluents (phosphate buffered saline (PBS) and DMSO) in which the DHEA and its derivatives were dissolved. The positive controls used were homocysteine and ascorbic acid (Vitamin C).

Data set [3] concerns human keratinocytes. Description: Viability of human keratinocytes in culture, MTT test (Example 5). The data set is classed as cell-based. Here is the method: Effects of 3β,7α-dihydroxy-5-androstene-17-one (7α-hydroxy-DHEA) on the viability of human keratinocytes in culture.
Human keratinocytes were obtained from surgical items and were cultivated in a monolayer until preconfluence. The 7α-hydroxy-DHEA was administered to these cultures at various concentrations in ethanolic solution (10%), each concentration being tested eight times. Controls were carried out with ethanol alone (10%). After twenty-four hours, the viability of the keratinocytes was measured by testing with MTT (3-(4,5-dimethylthiazol-2-yl)-2,5 diphenyl tetrazolium bromide) where the mitochondrial dehydrogenase succinate converts the MTT into blue crystals of formazan soluble in DMSO (Mosmann, J. Immunol. Methods 65: 55-63, 1983). The cellular viability is calculated according to the formula:
Any value greater than 100 indicates a product that encourages cellular viability.
In general terms: Tetrazolium assays rely on reduction of a dye to a coloured formazan, in cell work by metabolically active cells.

Another data set relates to human fibroblasts. Description: Proliferation of human fibroblasts in culture, cell count (Example 6). In kind it is cell-based. The following applies: 72 hours of contact, control 190,667 ± 6,766. How it is done:
Effects of 3β,7α-dihydroxy-5-androstene-17-one (7α-hydroxy-DHEA) on the proliferation of human fibroblasts in culture.
The cultures of human fibroblasts (person) were seeded on twenty-four site plates at the rate of 50,000 cells per site in a standard culture medium (DMEM, gentamycine, amphotericine B, penicillin, L-glutamine, 10% SVF). The tests were carried out on four series of three sites. After twenty-four hours, the fibroblasts adhered to the support and three series were treated with 7α-hydroxy-DHEA at concentrations of 10^−6 M, 6. 10^−6 M and 10^−7 M. The fourth series only contained the vector (ethanol). The media were renewed daily, and at ninety-six hours (seventy-two hours of test contact with the 7α-hydroxy-DHEA), the fibroblasts were counted on a Malassez cell in the presence of blue trypan.

The next data set relates to thymocytes. Briefly: Glucocorticoid-induced apoptosis of thymocytes, flow cytometry with propidium iodide (Example 4). The data set is classed as cell-based, mouse C57BL/6. The following applies: 6 hours. How it is done:
Effects of 3β,7α-dihydroxy-5-androstene-17-one (7α-hydroxy-DHEA) and of 3β,7α-dihydroxy-5α-androstane-17-one (7α-hydroxy-ISOA) on the cellular apoptosis induced by glucocorticoids.
The thymus of a mouse C57BL/6 age four weeks was removed. Culture of the thymocytes was carried out for 6 hours in a RPMI 1640 medium and in the presence or in the absence of the steroid tested. The apoptosis (fragmentation of the DNA) was measured by flow cytometry after marking with propidium iodide. The apoptotic phenomenon was controlled by electrophoresis of the DNA developed by ethidium bromide according to the traditional technique (observation of ladders of 200 pairs of bases).

Another data set concerns collagen content of skin. Briefly: Collagen content of neonatal rat skin by hydroxyproline evaluation (Example 3). In kind it is in vivo, neonatal male Sprague-Dawley rats. The following applies: 0.5% in carrier, twice daily, 30 days, five animals per group. Here is the method:
(§1) Chemical alterations in the skins of neonatal male Sprague-Dawley rats.
(§2) Collagen and elastin contents were measured on dry, defatted, hair-free skin samples. Collagen contents were assessed through hydroxyproline evaluations in hydrolyzed, 0.1N hot sodium hydroxide extracts. Elastin contents were measured by HPLC evaluation of the contents of thermolysin-produced peptides in digests of the hot sodium hydroxide residue. Controls were both shaven and unshaven, the shaven receiving only the carrier twice daily.
(§3) Elastin contents were increased by all the compounds (28% for DHEA, 30% for the 7 hydroxy and the 7 hydroxy-isoandrosterone). In these studies statistical analysis of variance was significant at an alpha level of 0.01. Similar to the histologic observations, these chemistries are reversible. Collagen and elastin contents returned to near normal levels after cessation of treatment for 30 days.

The next data set relates to elastin content of skin. Briefly: Elastin content of neonatal rat skin by HPLC of thermolysin-produced peptides (Example 3). In kind it is in vivo, neonatal male Sprague-Dawley rats. The following applies: 0.5% in carrier, twice daily, 30 days, five animals per group. Here is the method: as §1, §2, §3
In the next data set the test system is rat skin dermal layer. Description: Histologic examination of H&E stained rat skin cross sections (Example 1). The data set is classed as in vivo. An excerpt: 7 hydroxy DHEA and 7 hydroxy isoandrosterone treated rat skin.
Upon histologic examination of hematoxylin and eosin (H&E) stained rat skin cross sections, a striking physical change was noted. […] This finding was consistent and most pronounced when the parent compound (DHEA) was used on young, healthy rats. However, it also occurred in replicate experiments when the derivatives were used. […] The latter two findings support the toxicologic studies, done concomitantly, which found no significant toxicity when the compounds were used at 0.5% concentration in a suitable carrier applied twice daily (12 hour intervals) for 30 days. […] A subset of experimental animals within each treatment group were left untreated for 30 days. Upon examination, treated skin sections were indistinguishable from the untreated.

The test system of data set [4] is elastin content of the skin. Description: Elastin content of rat skin after 30 days of topical treatment (FIG. 1). The data set is classed as in vivo, Sprague-Dawley male rat. The following applies: topical 5% concentration of DHEA, similar time period, three animals. An excerpt: In FIG. 1, S CONTR represents the Shaven Control and US CONTR represents the Unshaven Control. FIG. 1 illustrates that the present invention has the advantageous qualities of enhancing the softness or elasticity of the skin by increasing the endogenous production of elastin in the skin. The present invention is also directed to a method of improving the texture of skin, specifically the physical appearance of the skin by improving the endogenous production of elastin. The method of the present invention employs any of a number of known administrative routes such as oral, IV, subcutaneous, transcutaneous, and topical administration. […]
It is preferable that the topical administration of the composition of the present invention occur repeatedly over a predetermined time period, preferably in the range of about one week to about one month. […] Testing illustrated that the endogenous elastin (measured by microgram (μg) Elastin per milligram (mg) Skin Fat Free Dry weight) of each of the rats to which the administration was applied doubled over that of a control sample and to a sample which was treated with a 5% concentration of DHEA over a similar time period. […] The data of FIG. 1 are significant at an alpha level less than 0.001 as determined by analysis of variance. […]

[5] abbreviates: steroid 10^−5 M with Dexamethasone 10^−5 M.
Where [6] appears, read: steroid 10^−6 M with Dexamethasone 10^−6 M.

The structures appear in SMILES notation.

`C[C@]12CC[C@H](O)CC1=C[C@@H](O)[C@@H]1[C@@H]2CC[C@]2(C)C(=O)CC[C@@H]12` [7α-hydroxy-DHEA, 3β,7α-dihydroxy-5-androstene-17-one]: in the data set with human keratinocytes [1] (calculated from non-irradiated controls and protection reference), the Effectiveness is on record as 90%. For the same compound, the Chemiluminescence in the data set on human keratinocytes [1] (irradiated controls 427,750 ± 137,322) is listed as 44,164 ± 13,303. For the same compound, the “reduction of light emission from luminol” value in [2] was “did not cause any reduction”. Besides, the “Viability of the keratinocytes” value turned out to be 111 ± 7% in the data set on human keratinocytes [3] (5 · 10^−5 M, 24 hours, control = 100); 147 ± 9% with human keratinocytes [3] (5 · 10^−6 M, 24 hours, control = 100); 139 ± 3% in the data set on human keratinocytes [3] (5 · 10^−7 M, 24 hours, control = 100); 124 ± 10% in the data set on human keratinocytes [3] (10^−4 M, 24 hours, control = 100); 119 ± 7% in the data set on human keratinocytes [3] (10^−5 M, 24 hours, control = 100); 154 ± 6% in the data set on human keratinocytes [3] (10^−6 M, 24 hours, control = 100). Besides, the “Viability of the keratinocytes” value in the data set on human keratinocytes [3] (10^−7 M, 24 hours, control = 100) is recorded as 147 ± 5%; in the data set on human keratinocytes [3] (10^−8 M, 24 hours, control = 100), 127 ± 3%. In addition, the cytotoxicity entry with human keratinocytes [3] (10^−4 M to 10^−8 M) is “no cytotoxicity was observed”. Further, the “effect on viability of human keratinocytes” value in the data set with human keratinocytes [3] (concentrations between 10^−4 M and 10^−8 M) is reported as “significantly increases the viability”. In addition, the “Number of Fibroblasts” value is on record as 258,667 ± 3,351 in the data set on human fibroblasts (5 · 10^−6 M), 268,000 ± 27,154 in the data set with human fibroblasts (10^−6 M) and 230,667 ± 8,511 in the data set with human fibroblasts (10^−7 M). In addition, the Apoptotic cells with thymocytes (setting [5]) is 48.6%; in the data set with thymocytes (setting [6]), 58.8%. Further, the collagen increase in the data set on collagen content of skin is 24%. For the same compound, the elastin content increase with elastin content of skin turned out to be 30%.
With `C[C@]12CC[C@H](O)C[C@@H]1C[C@@H](O)[C@@H]1[C@@H]2CC[C@]2(C)C(=O)CC[C@@H]12` [7α-hydroxy-ISOA, 3β,7α-dihydroxy-5α-androstane-17-one], the “reduction of light emission from luminol” value in [2] was 15%. The Apoptotic cells was 46.3% in the data set on thymocytes (setting [5]) and 72.0% in the data set with thymocytes (setting [6]). Further, the collagen increase in the data set on collagen content of skin turned out to be 24%. Further, the elastin content increase with elastin content of skin came out at 30%.
With `C[C@]12CC[C@H](O)CC1=CC[C@@H]1[C@@H]2CC[C@]2(C)C(=O)CC[C@@H]12` [DHEA, 3β-hydroxy-5-androstene-17-one, reference compound], in data set [2], the “reduction of light emission from luminol” value was 20%. In addition, in the data set with human keratinocytes [3] (other comparative tests, concentration not given), the “Viability of the keratinocytes” value is recorded as 100±5. Moreover, in the data set with rat skin dermal layer (0.5% in carrier, twice daily, 30 days, vs shaven and unshaven untreated controls), the “thickness of the dermal layer of skin” value is recorded as “thickened to nearly twice that of the untreated controls”. In addition, the “reversibility of dermal thickening” value with rat skin dermal layer (animals left untreated for 30 days after treatment) was “completely reversible”. In addition, the Apoptotic cells was 51.4% in the data set on thymocytes (setting [5]) and 39.0% in the data set on thymocytes (setting [6]). Further, in [4], the “endogenous elastin (mean)” value is listed as 1.753 microgram (μg) Elastin per milligram (mg) Skin Fat Free Dry weight. Further, the collagen decrease with collagen content of skin worked out at 16%. This compound also came in with an elastin content increase with elastin content of skin of 28%.

The values are drawn from US6777389B1, “Cosmetic or dermatological use of 7-hydroxylated steroids in combination with elastin derived peptides” (Connective Tissue Imagineering LLC, priority 1998, dated 2004).
